Here are results for seven molecules from patent publication US20250179047A1, “5-[7-(3,4-DIHYDRO-1H-ISOQUINOLINE-2-CARBONYL)-1,2,3,4 TETRAHYDROISOQUINOLIN-6-YL]-1H-PYRROLE-3-CARBOXAMIDE DERIVATIVES, PHARMACEUTICAL COMPOSITIONS CONTAINING THEM AND THEIR USES AS PRO-APOPTOTIC AGENTS” (LES LABORATOIRES SERVIER, priority 2022, published 2025).

The target in one assay is BCL2 WT (Homo sapiens (Human), UniProt P10415). The experiment in a line: TR-FRET competitive binding assay, BCL2 WT. The note with it: Ki determined from IC50, read-out: TR_FRET EKI_Bcl2 WT. The method, boiled down:
(§1)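 Terbium-labelled N-terminal Halo-fusion BCL2 or BCLXL (E. coli), 0.5 nM, competed against fluorescein-labelled PUMA peptide (2 or 20 nM) for 2 h at 23° C in 50 mM Hepes pH 7.5, 150 mM NaCl, 5% DMSO. TR-FRET 520/495 nm ratio gave IC50 by four-parameter fit; Ki derived from IC50.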
For orientation: Time-resolved FRET reads energy transfer from a long-lived donor to a nearby acceptor.

The target in a further assay is BCL2 D103Y (Homo sapiens, UniProt P10415, D103Y). Put plainly: TR-FRET competitive binding assay, BCL2 D103Y. The note with it: Ki determined from IC50, read-out: TR_FRET EKI_Bcl2 D103Y. An outline of the steps:
as §1

The test system of a further assay is KMS-12-PE Bcl-2 WT. Put plainly: In vitro cytotoxicity CellTiter-Glo 48 h, KMS-12-PE Bcl-2 WT. It is filed as cell-based. The note with it: Homo sapiens, KMS-12-PE, C50 = concentration needed to reach 50% of the cellular viability. An outline of the steps: (§2)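 Potency is expressed as C50, the compound concentration at which viability of engineered KMS-12-PE cells (Bcl-2 wild type or G101V) falls to 50%, determined from CellTiter-Glo luminescence after 48 h of treatment over 11 concentrations.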
A general note: ATP-based viability assays read luminescence as a measure of living cells.

The subject of another assay is KMS-12-PE Bcl-2 G101V. Put plainly: In vitro cytotoxicity CellTiter-Glo 48 h, KMS-12-PE Bcl-2 G101V. The note with it: for Ratio (G101V/WT): C50 KMS-12-PE Bcl-2 G101V over C50 KMS-12-PE Bcl-2 WT; for IC50: Homo sapiens, KMS-12-PE, 48 h, CellTiter-Glo, C50 = concentration needed to reach 50% of the cellular viability. The assay is classed as cell-based. The method, boiled down:
as §2

The target of a further assay is BCLXL WT (Homo sapiens (Human), UniProt Q07817). Put plainly: TR-FRET competitive binding assay, BCLXL WT. The note with it: for Ki: BCLXL WT, Ki determined from IC50, read-out: TR_FRET EKI BclxL; for TR_FRET EKI BCLxL/WT selectivty ratio: ratio Ki BCLxL / Ki BCL2 WT. An outline of the steps: as §1
The subject of assay [1] is BCL2 G101V. The experiment in a line: TR-FRET competitive binding assay, BCL2 G101V. Further details: species or system human. The note with it: ratio Ki BCL2 G101V / Ki BCL2 WT. The method, boiled down:
as §1

The target in assay [2] is BCL2 G101V (Homo sapiens, UniProt P10415, G101V). Put plainly: TR-FRET competitive binding assay, BCL2 G101V. The note with it: BCL2 G101V; Ki determined from IC50; read-out: TR_FRET EKI_Bcl2 G101V. The method, boiled down: as §1

Chain of BCLXL WT (Q07817 other isoform, or with tags, fused parts or gaps): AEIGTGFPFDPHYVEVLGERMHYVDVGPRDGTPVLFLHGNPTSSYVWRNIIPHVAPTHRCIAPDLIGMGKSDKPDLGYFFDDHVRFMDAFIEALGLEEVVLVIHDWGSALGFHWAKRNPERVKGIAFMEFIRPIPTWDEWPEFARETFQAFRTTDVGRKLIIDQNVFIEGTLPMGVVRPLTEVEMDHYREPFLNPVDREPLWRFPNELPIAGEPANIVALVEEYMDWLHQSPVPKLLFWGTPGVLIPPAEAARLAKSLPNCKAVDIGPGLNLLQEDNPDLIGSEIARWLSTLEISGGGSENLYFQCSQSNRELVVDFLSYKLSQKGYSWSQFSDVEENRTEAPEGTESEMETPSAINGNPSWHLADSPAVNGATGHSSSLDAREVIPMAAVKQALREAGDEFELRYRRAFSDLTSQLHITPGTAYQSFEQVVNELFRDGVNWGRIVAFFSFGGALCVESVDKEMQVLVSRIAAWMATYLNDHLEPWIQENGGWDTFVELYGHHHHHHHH

With `COc1ccc(N(C(=O)c2cc(-c3cc4c(cc3C(=O)N3Cc5ccccc5C[C@H]3CN3CCCCC3)CN(C(=O)Cc3ccc(OCCN5CCOCC5)cc3F)CC4)n(C)c2C)c2ccc(O)cc2)cc1C#N` [Example 167, N-(3-cyano-4-methoxyphenyl)-5-[2-(2-{2-fluoro-4-[2-(morpholin-4-yl)ethoxy]phenyl}acetyl)-7-{[(3S)-3-(piperidin-1-ylmethyl)-3,4-dihydro-1H-isoquinolin-2-yl]carbonyl}-3,4-dihydro-1H-isoquinolin-6-yl]-N-(4-hydroxyphenyl)-1,2-dimethylpyrrole-3-carboxamide], the Ki turned out to be 0.05 nM at BCL2 WT, 0.15 nM at BCL2 D103Y, 8.4 nM at BCLXL WT and 0.3 nM on BCL2 G101V [2]. Moreover, the IC50 in the assay with KMS-12-PE Bcl-2 WT worked out at 0.0078 µM; in the assay with KMS-12-PE Bcl-2 G101V, 0.0669 µM. In addition, in the assay on KMS-12-PE Bcl-2 G101V, the “Ratio (G101V/WT)” value is 8.5769. In addition, the “TR_FRET EKI BCLxL/WT selectivty ratio” value on BCLXL WT was found to be 171.4. Further, the “TR_FRET EKI G101V/WT selectivty ratio” value in the assay with BCL2 G101V [1] was 6.5.
As for `Cc1c(C(=O)N(c2ccc(O)cc2)c2ccc(OC(C)C)c(C#N)c2)cc(-c2cc3c(cc2C(=O)N2Cc4ccccc4C[C@H]2CN2CCCCC2)CN(C(=O)Cc2ccc(OCCN4CCOCC4)cc2F)CC3)n1C` [Example 168, N-(3-cyano-4-isopropoxyphenyl)-5-[2-(2-{2-fluoro-4-[2-(morpholin-4-yl)ethoxy]phenyl}acetyl)-7-{[(3S)-3-(piperidin-1-ylmethyl)-3,4-dihydro-1H-isoquinolin-2-yl]carbonyl}-3,4-dihydro-1H-isoquinolin-6-yl]-N-(4-hydroxyphenyl)-1,2-dimethylpyrrole-3-carboxamide], the Ki at BCL2 WT was 0.11 nM; on BCL2 D103Y, 0.22 nM; on BCLXL WT, 11 nM; at BCL2 G101V [2] it was 0.5 nM. The IC50 is 0.0075 µM in the assay on KMS-12-PE Bcl-2 WT and 0.0558 µM in the assay with KMS-12-PE Bcl-2 G101V. Further, the “Ratio (G101V/WT)” value with KMS-12-PE Bcl-2 G101V is 7.4599. At BCLXL WT, the “TR_FRET EKI BCLxL/WT selectivty ratio” value was found to be 100.0. Also, in the assay on BCL2 G101V [1], the “TR_FRET EKI G101V/WT selectivty ratio” value is reported as 4.7.
For `CCOC[C@@H]1Cc2ccccc2CN1C(=O)c1cc2c(cc1-c1cc(C(=O)N(c3ccc(O)cc3)c3cc(C#N)n(C)c3C)c(C)n1C)CCN(C(=O)Cc1ccc(OCCN3CCOCC3)cc1F)C2` [Example 169, N-(5-cyano-1,2-dimethyl-pyrrol-3-yl)-5-[7-[(3S)-3-(ethoxymethyl)-3,4-dihydro-1H-isoquinoline-2-carbonyl]-2-[2-[2-fluoro-4-(2-morpholinoethoxy)phenyl]acetyl]-3,4-dihydro-1H-isoquinolin-6-yl]-N-(4-hydroxyphenyl)-1,2-dimethyl-pyrrole-3-carboxamide], the Ki stood at 0.09 nM at BCL2 WT, 0.36 nM at BCL2 D103Y, 1.2 nM at BCLXL WT and 0.4 nM at BCL2 G101V [2]. In addition, the figures for the IC50 with KMS-12-PE Bcl-2 WT and in the assay with KMS-12-PE Bcl-2 G101V were 0.0049 µM and 0.0248 µM, respectively. The “Ratio (G101V/WT)” value with KMS-12-PE Bcl-2 G101V came out at 5.082. Moreover, the “TR_FRET EKI BCLxL/WT selectivty ratio” value at BCLXL WT is on record as 12.8. The “TR_FRET EKI G101V/WT selectivty ratio” value with BCL2 G101V [1] is 4.6.
Consider `Cc1c(N(C(=O)c2cc(-c3cc4c(cc3C(=O)N3Cc5ccccc5C[C@H]3COCC3CC3)CN(C(=O)Cc3ccc(OCCN5CCOCC5)cc3F)CC4)n(C)c2C)c2ccc(O)cc2)cc(C#N)n1C` [Example 170, N-(5-cyano-1,2-dimethyl-pyrrol-3-yl)-5-[7-[(3S)-3-(cyclopropylmethoxymethyl)-3,4-dihydro-1H-isoquinoline-2-carbonyl]-2-[2-[2-fluoro-4-(2-morpholinoethoxy)phenyl]acetyl]-3,4-dihydro-1H-isoquinolin-6-yl]-N-(4-hydroxyphenyl)-1,2-dimethyl-pyrrole-3-carboxamide], for which the Ki stood at 0.3 nM at BCL2 WT, 1.06 nM at BCL2 D103Y, 4.5 nM on BCLXL WT and 1.3 nM at BCL2 G101V [2]. The IC50 turned out to be 0.0047 µM in the assay with KMS-12-PE Bcl-2 WT and 0.0306 µM in the assay with KMS-12-PE Bcl-2 G101V. In addition, the “Ratio (G101V/WT)” value with KMS-12-PE Bcl-2 G101V stood at 6.4831. Also, the “TR_FRET EKI BCLxL/WT selectivty ratio” value at BCLXL WT came out at 15.0. Moreover, in the assay on BCL2 G101V [1], the “TR_FRET EKI G101V/WT selectivty ratio” value is on record as 4.3.
With `Cc1c(N(C(=O)c2cc(-c3cc4c(cc3C(=O)N3Cc5ccccc5C[C@H]3CN3CCCC3)CN(C(=O)Cc3c(F)cc(OCCN5CCOCC5)cc3F)CC4)n(C)c2C)c2ccc(O)cc2)cc(C#N)n1C` [Example 171, N-(5-cyano-1,2-dimethyl-pyrrol-3-yl)-5-[2-[2-[2,6-difluoro-4-(2-morpholinoethoxy)phenyl]acetyl]-7-[(3S)-3-(pyrrolidin-1-ylmethyl)-3,4-dihydro-1H-isoquinoline-2-carbonyl]-3,4-dihydro-1H-isoquinolin-6-yl]-N-(4-hydroxyphenyl)-1,2-dimethyl-pyrrole-3-carboxamide], the Ki on BCL2 WT was 0.02 nM; on BCL2 D103Y, 0.09 nM; on BCLXL WT, 1.3 nM; on BCL2 G101V [2] it was 0.2 nM. Moreover, the figures for the IC50 in the assay with KMS-12-PE Bcl-2 WT and in the assay with KMS-12-PE Bcl-2 G101V were 0.0128 µM and 0.0603 µM, respectively. Also, the “Ratio (G101V/WT)” value in the assay with KMS-12-PE Bcl-2 G101V is given as 4.7109. Also, the “TR_FRET EKI BCLxL/WT selectivty ratio” value on BCLXL WT was 61.9. Moreover, the “TR_FRET EKI G101V/WT selectivty ratio” value in the assay with BCL2 G101V [1] is given as 7.1.
On to `COC[C@@H]1Cc2ccccc2CN1C(=O)c1cc2c(cc1-c1cc(C(=O)N(c3ccc(O)cc3)c3cc(C#N)n(C(F)F)c3C)c(C)n1C)CCN(C(=O)Cc1ccc(OCCN3CCOCC3)cc1)C2` [Example 172, N-[5-cyano-1-(difluoromethyl)-2-methyl-pyrrol-3-yl]-N-(4-hydroxyphenyl)-5-[7-[(3S)-3-(methoxymethyl)-3,4-dihydro-1H-isoquinoline-2-carbonyl]-2-[2-[4-(2-morpholinoethoxy)phenyl]acetyl]-3,4-dihydro-1H-isoquinolin-6-yl]-1,2-dimethyl-pyrrole-3-carboxamide], for which the Ki at BCL2 WT turned out to be 0.11 nM; at BCL2 D103Y, 0.39 nM; at BCLXL WT it was 3.2 nM; at BCL2 G101V [2], 0.5 nM. The IC50 is 0.0061 µM in the assay with KMS-12-PE Bcl-2 WT and 0.0284 µM with KMS-12-PE Bcl-2 G101V. Moreover, the “Ratio (G101V/WT)” value with KMS-12-PE Bcl-2 G101V turned out to be 4.6557. For the same molecule, the “TR_FRET EKI BCLxL/WT selectivty ratio” value at BCLXL WT turned out to be 29.1. Also, in the assay on BCL2 G101V [1], the “TR_FRET EKI G101V/WT selectivty ratio” value stood at 4.4.
Consider `Cc1c(N(C(=O)c2cc(-c3cc4c(cc3C(=O)N3Cc5ccccc5C[C@H]3CN3CCC5(CC5)C3)CN(C(=O)Cc3ccc(OCCN5CCOCC5)cc3F)CC4)n(C)c2C)c2ccc(O)cc2)cc(C#N)n1C` [Example 176, 5-[7-[(3S)-3-(5-azaspiro[2.4]heptan-5-ylmethyl)-3,4-dihydro-1H-isoquinoline-2-carbonyl]-2-[2-[2-fluoro-4-(2-morpholinoethoxy)phenyl]acetyl]-3,4-dihydro-1H-isoquinolin-6-yl]-N-(5-cyano-1,2-dimethyl-pyrrol-3-yl)-N-(4-hydroxyphenyl)-1,2-dimethyl-pyrrole-3-carboxamide], for which the Ki at BCL2 WT came out at 0.03 nM; on BCL2 D103Y, 0.16 nM; on BCLXL WT, 2.3 nM; on BCL2 G101V [2], 0.2 nM. The IC50 worked out at 0.0093 µM in the assay with KMS-12-PE Bcl-2 WT and 0.0596 µM in the assay with KMS-12-PE Bcl-2 G101V. Moreover, in the assay with KMS-12-PE Bcl-2 G101V, the “Ratio (G101V/WT)” value is given as 6.4155. Also, at BCLXL WT, the “TR_FRET EKI BCLxL/WT selectivty ratio” value is on record as 74.2. In addition, the “TR_FRET EKI G101V/WT selectivty ratio” value in the assay with BCL2 G101V [1] is recorded as 5.8.

As usually defined, the IC50 is the concentration that gives 50% inhibition.
